A short description of data set [1]: Freeze/thaw stability of QC samples. The class given is in vitro ADME. The following applies: QC in 70 g/L albumin in PBS, two cycles of freezing and thawing, LC-MS/MS. The procedure:
(§1) Stability of analytes in processed samples was determined at six independent days for a time span of 20 h in the autosampler. Deviations of standing samples to freshly measured samples were below 19% at the LLOQ and below 9% for other QC levels for each analyte, respectively (Additional file 4). Stability of analytes in biological matrix was determined by consecutive cycles of freezing and thawing as well as extended intervals at room temperature from thawing to processing (approximately one hour).
(§2) Lyophilized authentic peptide standards were dissolved and diluted in a 70 g/L Albumin (from human serum, lyophilized, ≥ 99%, Sigma-Aldrich) in PBS (Sigma-Aldrich, St. Louis, MO, USA) solution. Internal standards C37^IS and C42^IS were dissolved in Milli-Q water (Millipore, Brussels, Belgium) containing 0.1% (v/v) formic acid (≥ 95%, Sigma-Aldrich) whereas C22^IS was only dissolved in ultrapure water. Mixtures of CAAPs used as calibration standards (calibrants) and quality control samples (QCs) were prepared as stock solution to a final concentration of 14 µM, respectively, (expect C40^SNP which was 5 µM) with subsequent serial dilutions. Calibrants and QCs were obtained from separate serial dilutions. Internal standard solution was prepared by adding equal volumes of each IS yielding a final concentration of 0.8 µM, respectively. All samples used for method development and validation were prepared and stored in 0.5 mL Protein LoBind Tubes (Eppendorf AG, Hamburg, Germany) in aliquots at − 80 °C until use.
(§3) Working range of calibrants was defined based on CAAPs detected in samples from healthy donors (set to approximate lower limit of quantification) and in samples from septic patients (set to middle to high calibration range) which were re-analyzed from a previously work[46]. Nine calibrants were used in total ranging from 0.01 µM to 1.5 µM thereby covering more than two orders of magnitude in concentration. Linearity was assessed determining mean linear regression coefficients of each calibration curve from 0.01 to 1.5 µM in eight independent analytical runs. However, respective LLOQs (lower limit of quantification) and ULOQs (upper limit of quantification) were defined individually based on natural occurrence (see above) and results from validation parameter directly affected individual working ranges (carry-over, specificity). Four QC samples were prepared and measured in total (QC1, QC2, QC3, and QC4) to cover the entire range of calibration. However, three QCs for each of the respective analytes were used for method validation. Carry-over was determined measuring pure albumin solutions prepared without internal standards (but equal amount and concentration of water/formic acid solution as regular internal standard solution, “blank albumin sample”) directly after the respective highest calibrants. Peak areas were compared to peak areas from respective LLOQ samples (prepared with regular internal standard solution). Specificity was assessed using single compounds at respective highest calibrant level which were prepared and calculated as described for carry-over. The specificity of analytes towards internal standards was determined using pure albumin solution with internal standard (“zero albumin sample”). Accuracy and precision was determined by back-calculated concentrations from repeated measurements of the same QC samples during one analytical run (within-run repeatability, n = 5) and from freshly prepared samples during five independent analytical runs (between-run, n = 5). Due to the unavailability of analyte-free biological matrix, selectivity of analytes were assessed in pure albumin solution containing internal standards. Matrix effects were determined calculating recovery rates and precision of each compound in human blood samples. Direct comparison between different anticoagulants (EDTA, lithium-heparin) and serum was performed using whole blood from the same human donor. […]

Data set [2] can be described thus: Benchtop stability of QC samples at room temperature. Format: in vitro ADME. Conditions: QC in 70 g/L albumin in PBS, 60 min. at room temperature, LC-MS/MS. The procedure:
as §1, §2, §3

[3] abbreviates: QC2 (0.025 µM; C40^SNP see Table 1).
The mark [4] stands for this setting: QC3 (0.3 µM; C40^SNP 0.1073 µM).

Ends that are not written are not given here.

Turning to “MFLEAIPMSIPPEVKFNKPFVFLMIDQNTKSPLFMGKVVNPTQK [C44^SNP]”, in data set [1] (setting [3]), the freeze/ thaw stability, accuracy (mean of n=3) came out at 109% and the “freeze/ thaw stability, deviation from freshly processed QCs (mean of n=3)” value (shortened to “freeze/ thaw stability, deviation”) is on record as -6%. Further, in data set [1] (setting [4]), the freeze/ thaw stability, accuracy (mean of n=3) came to 115% and the “freeze/ thaw stability, deviation” value was -2%. Besides, in data set [2] (setting [3]), the benchtop stability, accuracy (mean of n=3) was 114% and the “benchtop stability, deviation from freshly processed QCs (mean of n=3)” value (“benchtop stability, deviation” for short) is recorded as -2%. Moreover, in data set [2] (setting [4]), the benchtop stability, accuracy (mean of n=3) amounted to 115% and the “benchtop stability, deviation” value was -2%.
Consider “MFLEAIPMSIPPEVKFNKPFVFLMIEQNTKSPLFMGKVVNPTQK [C44^WT]”, for which the values for the freeze/ thaw stability, accuracy (mean of n=3) in data set [1] (setting [3]) and in data set [1] (setting [4]) were 110% and 115%, respectively. Besides, the “freeze/ thaw stability, deviation” value in data set [1] (setting [3]) is -4%; in data set [1] (setting [4]), -1%. In addition, the figures for the benchtop stability, accuracy (mean of n=3) in data set [2] (setting [3]) and in data set [2] (setting [4]) were 117% and 114%, respectively. Besides, the “benchtop stability, deviation” value is 1% in data set [2] (setting [3]) and -2% in data set [2] (setting [4]).
Take “MSIPPEVKFNKPFVFLMIDQNTKSPLFMGKVVNPTQK [C37^SNP]”: the freeze/ thaw stability, accuracy (mean of n=3) in data set [1] (setting [3]) turned out to be 104%; in data set [1] (setting [4]) it was 98%. In addition, the figures for the “freeze/ thaw stability, deviation” value in data set [1] (setting [3]) and in data set [1] (setting [4]) were 0% and -1%, respectively. The benchtop stability, accuracy (mean of n=3) in data set [2] (setting [3]) is 103%; in data set [2] (setting [4]), 99%. Also, the “benchtop stability, deviation” value in data set [2] (setting [3]) is recorded as 0%; in data set [2] (setting [4]), -1%.
“LEAIPMSIPPEVKFNKPFVFLMIDQNTKSPLFMGKVVNPTQK [C42^SNP]”: in data set [1] (setting [3]), the freeze/ thaw stability, accuracy (mean of n=3) turned out to be 105% and the “freeze/ thaw stability, deviation” value came to 2%. Moreover, in data set [1] (setting [4]), the freeze/ thaw stability, accuracy (mean of n=3) was 100% and the “freeze/ thaw stability, deviation” value is -4%. In addition, in data set [2] (setting [3]), the benchtop stability, accuracy (mean of n=3) was determined as 104% and the “benchtop stability, deviation” value is 1%. In data set [2] (setting [4]), the benchtop stability, accuracy (mean of n=3) stood at 101% and the “benchtop stability, deviation” value is on record as -3%.
For the sequence “AMFLEAIPMSIPPEVKFNKPFVFLMIEQNTKSPLFMGKVVNPTQK [C45^WT]”, in data set [1] (setting [3]), the freeze/ thaw stability, accuracy (mean of n=3) was found to be 108% and the “freeze/ thaw stability, deviation” value is recorded as -6%. In data set [1] (setting [4]), the freeze/ thaw stability, accuracy (mean of n=3) was 117% and the “freeze/ thaw stability, deviation” value was -2%. Further, in data set [2] (setting [3]), the benchtop stability, accuracy (mean of n=3) stood at 116% and the “benchtop stability, deviation” value is 1%. In data set [2] (setting [4]), the benchtop stability, accuracy (mean of n=3) came out at 117% and the “benchtop stability, deviation” value is on record as -3%.
With “AIPMSIPPEVKFNKPFVFLMIEQNTKSPLFMGKVVNPTQK [C40^WT]”, the freeze/ thaw stability, accuracy (mean of n=3) in data set [1] (setting [3]) worked out at 107%; in data set [1] (setting [4]), 99%. For the same sequence, the “freeze/ thaw stability, deviation” value was 5% in data set [1] (setting [3]) and -4% in data set [1] (setting [4]). In addition, the benchtop stability, accuracy (mean of n=3) is 109% in data set [2] (setting [3]) and 101% in data set [2] (setting [4]). Further, the “benchtop stability, deviation” value in data set [2] (setting [3]) was 6%; in data set [2] (setting [4]) it was -3%.
On to LMIEQNTKSPLFMGKVVNPTQK [C22^WT], for which, in data set [1] (setting [3]), the freeze/ thaw stability, accuracy (mean of n=3) was 104% and the “freeze/ thaw stability, deviation” value stood at 2%. In data set [1] (setting [4]), the freeze/ thaw stability, accuracy (mean of n=3) came to 99% and the “freeze/ thaw stability, deviation” value is listed as -2%. Also, in data set [2] (setting [3]), the benchtop stability, accuracy (mean of n=3) came to 103% and the “benchtop stability, deviation” value is given as 1%. Moreover, in data set [2] (setting [4]), the benchtop stability, accuracy (mean of n=3) was found to be 102% and the “benchtop stability, deviation” value was found to be 1%.
For “LEAIPMSIPPEVKFNKPFVFLMIEQNTKSPLFMGKVVNPTQK [C42^WT]”, in data set [1] (setting [3]), the freeze/ thaw stability, accuracy (mean of n=3) amounted to 104% and the “freeze/ thaw stability, deviation” value came out at 2%. For the same sequence, in data set [1] (setting [4]), the freeze/ thaw stability, accuracy (mean of n=3) was 100% and the “freeze/ thaw stability, deviation” value is -4%. Moreover, in data set [2] (setting [3]), the benchtop stability, accuracy (mean of n=3) amounted to 102% and the “benchtop stability, deviation” value is recorded as 1%. In data set [2] (setting [4]), the benchtop stability, accuracy (mean of n=3) worked out at 101% and the “benchtop stability, deviation” value is recorded as -3%.
Regarding “SIPPEVKFNKPFVFLMIEQNTKSPLFMGKVVNPTQK [C36^WT]”, in data set [1] (setting [3]), the freeze/ thaw stability, accuracy (mean of n=3) turned out to be 106% and the “freeze/ thaw stability, deviation” value is recorded as 4%. Besides, in data set [1] (setting [4]), the freeze/ thaw stability, accuracy (mean of n=3) was 98% and the “freeze/ thaw stability, deviation” value is -1%. In data set [2] (setting [3]), the benchtop stability, accuracy (mean of n=3) was 106% and the “benchtop stability, deviation” value is given as 4%. Further, in data set [2] (setting [4]), the benchtop stability, accuracy (mean of n=3) turned out to be 98% and the “benchtop stability, deviation” value was -1%.
Consider “AIPMSIPPEVKFNKPFVFLMIDQNTKSPLFMGKVVNPTQK [C40^SNP]”, for which the freeze/ thaw stability, accuracy (mean of n=3) worked out at 103% in data set [1] (setting [3]) and 100% in data set [1] (setting [4]). For the same sequence, the “freeze/ thaw stability, deviation” value in data set [1] (setting [3]) and in data set [1] (setting [4]) was -3% each time. Moreover, the figures for the benchtop stability, accuracy (mean of n=3) in data set [2] (setting [3]) and in data set [2] (setting [4]) were 104% and 101%, respectively. For the same sequence, the entries for the “benchtop stability, deviation” value in data set [2] (setting [3]) and in data set [2] (setting [4]) were -1% and -2%, respectively.
As for “IPMSIPPEVKFNKPFVFLMIEQNTKSPLFMGKVVNPTQK [C39^WT]”, in data set [1] (setting [3]), the freeze/ thaw stability, accuracy (mean of n=3) was found to be 107% and the “freeze/ thaw stability, deviation” value turned out to be 8%. In addition, in data set [1] (setting [4]), the freeze/ thaw stability, accuracy (mean of n=3) is 101% and the “freeze/ thaw stability, deviation” value is 2%. Further, in data set [2] (setting [3]), the benchtop stability, accuracy (mean of n=3) was found to be 106% and the “benchtop stability, deviation” value came to 8%. Also, in data set [2] (setting [4]), the benchtop stability, accuracy (mean of n=3) came out at 98% and the “benchtop stability, deviation” value is reported as -1%.
As to “SIPPEVKFNKPFVFLMIDQNTKSPLFMGKVVNPTQK [C36^SNP]”, in data set [1] (setting [3]), the freeze/ thaw stability, accuracy (mean of n=3) is 104% and the “freeze/ thaw stability, deviation” value amounted to 2%. In data set [1] (setting [4]), the freeze/ thaw stability, accuracy (mean of n=3) was found to be 99% and the “freeze/ thaw stability, deviation” value is reported as -2%. In addition, in data set [2] (setting [3]), the benchtop stability, accuracy (mean of n=3) came out at 101% and the “benchtop stability, deviation” value is on record as -1%. In data set [2] (setting [4]), the benchtop stability, accuracy (mean of n=3) stood at 98% and the “benchtop stability, deviation” value is given as -2%.
For the sequence LMIDQNTKSPLFMGKVVNPTQK [C22^SNP], the freeze/ thaw stability, accuracy (mean of n=3) in data set [1] (setting [3]) is 103%; in data set [1] (setting [4]), 97%. Further, the “freeze/ thaw stability, deviation” value in data set [1] (setting [3]) came out at 2%; in data set [1] (setting [4]) it was 0%. In addition, the results for the benchtop stability, accuracy (mean of n=3) in data set [2] (setting [3]) and in data set [2] (setting [4]) were 104% and 100%, respectively. Also, the “benchtop stability, deviation” value in data set [2] (setting [3]) was 2%; in data set [2] (setting [4]), 3%.

For the origin of these results see PMC8907207, “Multiplex quantification of C-terminal alpha-1-antitrypsin peptides provides a novel approach for characterizing systemic inflammation” (Scientific Reports, 2022).
